Test results reported in US20200354411A1, “Chimeric Molecule for Targeting c-Myc in Cells” (priority 2017, published 2020).
Entries after “also recorded” stand apart in the source; their conditions may differ. Read-outs that look alike come from different tables or passages of the source.

What was measured:
[1] = test system: c-Myc; assay: E-Box luciferase reporter, c-Myc transcriptional activity in A431 cells; format: cell-based; settings: for EC50: A431 cells expressing luciferase upon E-Box promoter
Source text: (§1) All cell lines come from ATCC. Lentiviruses were generated according to the manufacturer's instructions (Invitrogen). WT A431 cells were transduced with Cignal Lenti Myc Reporter (Qiagen) expressing Luciferase upon E-Box promoter and CMV-Renilla Control CLS-RCL expressing Renilla upon CMV promoter. Single clone was selected after colony isolation and Luciferase/Renilla expression level tested. All cell lines (A431 and HepG2) were maintained in high-glucose Dulbecco's modified Eagle's medium supplemented with 10% foetal calf serum at 37° C. in a 10% CO2 incubator. All experiments were performed on cells passaged fewer than 10 times after thawing.
40,000 A431-Ebox-luc-CMV-Ren cells were seeded in a 96-well plate (Falcon) 48 hours. Luminescence is detected using the Promega Dual-Glo luciferase assay system, according to the manufacturer's protocol and read using Tecan Infinite M200 microplate reader using 100 ms integration time. […]

[2] = test system: HeLa, A431, MG63, MDA-MD231, and HCT116; assay: Sensitivity of other cell lines (data not shown); format: cell-based
[3] = test system: Hepatocarcinoma HepG2 cells; assay: HepG2 cell proliferation (IncuCyte live imaging); format: cell-based; settings: for concentration above which no proliferation / absence of cell growth: HepG2, 2 weeks
Method: (§2) Cells were seeded at 10 to 20% confluency. 24 hours later, the cells were incubated with different doses of tPE-H1 at 37° C., 10% CO2 for 14 days. Live imaging was performed using IncuCyte ZOOM® Live-Cell Analysis System. Bright field Images were taken every 6 hours. Images were analysed using IncuCyte ZOOM® Live-Cell Analysis software.
(§3) It is of note that the experiments outlined above were also performed using the tPE-Omomcy fusion protein, results of which are shown in FIG. 2B, and FIGS. 12 to 15. The concentration of the tPE-Omomyc fusion protein is as stated on the x-axis in FIGS. 12 and 14; 200 nM for FIG. 2B; and 10 nM for FIGS. 13 and 15.

[4] = test system: Hepatocarcinoma HepG2 cells; assay: DRAQ7 cell mortality assay; format: cell-based; settings: 24 hours
Method: 25000 HepG2 cells were seeded per well in a 96-well plate. After incubation at 37° C. for 24 hours, DRAQ7 dye was prepared with 100 nM tPE-H1 at 500 times dilution
Cell mortality was tracked by acquiring nine fields of brightfield and far-red images at 20× magnification every 4 hours using the Operetta machine (Perkin-Elmer) for 3 to 5 days. The machine kept the plate incubated at 37° C. with 8% CO2.
as §3

[5] = test system: A431 cells; assay: Cell fractionation, subcellular location; format: cell-based; settings: for subcellular location after cell fractionation: 200 nM, 1 hour, A431; for time to reach the nucleus: after incubation
Method: Cells were seeded at the desired densities in six-well dishes (Thermo Fisher Scientific) and incubated at 37° C., 10% CO2 for 16 hours. Cells were treated for 1 hour with mock (untreated cells) or tPE-H1 200 nM before fractionation with Cell Surface Protein Isolation Kit (#89881, Thermo Fisher Scientific) according to the manufacturer's protocol. In addition, cytosolic fraction is centrifuge at 15 000 g for 15 minutes to remove membrane contaminants. Samples are denaturated in Laemmli blue 2X and heat-denaturated for 5 minutes at 95° C. Samples are loaded on SDS-PAGE followed by western blot.
as §3

[6] = biological target: T1, c-Myc/Max complex (Homo sapiens, UniProt P01106); assay: c-Myc co-immunoprecipitation with Max; format: cell-based; settings: 200 nM, 1 hour, A431
T1 construct: endogenous in cells; host or cells: A431
T1 sequence (P01106 whole entry, one chain of several): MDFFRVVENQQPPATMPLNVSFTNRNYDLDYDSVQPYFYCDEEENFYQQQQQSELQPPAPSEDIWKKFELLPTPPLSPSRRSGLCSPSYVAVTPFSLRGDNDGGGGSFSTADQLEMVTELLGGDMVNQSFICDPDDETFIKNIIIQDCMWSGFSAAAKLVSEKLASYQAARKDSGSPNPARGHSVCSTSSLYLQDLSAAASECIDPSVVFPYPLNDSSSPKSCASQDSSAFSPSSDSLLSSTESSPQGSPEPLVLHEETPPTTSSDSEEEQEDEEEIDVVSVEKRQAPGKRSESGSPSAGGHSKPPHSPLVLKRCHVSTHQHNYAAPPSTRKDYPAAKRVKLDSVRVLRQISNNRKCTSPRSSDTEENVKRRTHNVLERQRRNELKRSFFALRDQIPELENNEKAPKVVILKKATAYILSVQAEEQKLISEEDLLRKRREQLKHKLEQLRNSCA
Method: A431 cells seeded at the desired densities in six-well dishes (Thermo Fisher Scientific) and incubated at 37° C., 10% CO2 for 16 hours. Cells were treated for 1 hour with mock, tPE or tPE-H1 200 nM before lysis in RIPA buffer for 20 minutes at 4° C. and centrifugation for 20 minutes at 15 000 g at 4° C. Soluble fractions were added with c-myc antibody (#32, Abcam) on orbital wheel for 4 hours at 4° C. Protein A Sepharose (GE Healthcare) was added and incubated overnight on orbital wheel at 4° C. After three washes, proteins were eluted in one volume of Laemmli blue 2X and heat-denaturated for 5 minutes at 95° C. Samples were run on SDS-PAGE before western blot. Membrane are blocked in milk and incubated with anti Max (#199489, Abcam) and anti c-Myc (#32072, Abcam).

[7] = test system: c-Myc regulated genes; assay: RT-PCRQ of c-Myc regulated transcripts; format: cell-based, human; settings: A431, 100 nM overnight (16 hours)
Method: 400000 A431 cells were seeded in each well in a 6 well plate (Falcon) 24 hours before incubation with 100 nM tPE-H1 for 16 hours at 37° C. Total RNA was isolated using the RNeasy Mini Kit (Qiagen, Ref. no 74106) as described by manufacturer's protocol.
10 μg total RNA was reversed transcribed using SuperScript III First-Strand Synthesis System for RT-PCR (Invitrogen, Cat. no. 18080051) as described by manufacturer's protocol.
The relative expression of mRNAs of c-Myc regulated genes identified in RT^2 Profiler™ PCR Array Human MYC Targets (Qiagen, Cat. no. PAHS-177Z) was determined by real-time quantitative RT-PCR. Briefly, a PCR component mix containing cDNA, RT^2 SYBR Green Mastermix (Qiagen, Cat. no. 330523) and RNase-free water is prepared. 25 μl of the PCR reaction was added to each well in one array plate and subjected to a qPCR program using the ABI 7500. PCR cycling conditions comprised of an initial denaturation step at 95° C. for 10 minutes followed by an amplification program for 40 cycles of 15 seconds at 95° C., and 60 seconds at 60° C. with fluorescence acquisition at the end of each extension. The relative expression of each gene between treated and untreated samples is calculated using the comparative ΔΔCT method, using the mock treated sample as calibrator and housekeeping gene HPRT as internal control.

[8] = test system: Renilla upon CMV promoter; assay: CMV-Renilla control reporter in A431 cells; format: cell-based; settings: 50 nM, 6 hours
Source text: as §1
40,000 A431-Ebox-luc-CMV-Ren cells were seeded in a 96-well plate (Falcon) 48 hours. Luminescence is detected using the Promega Dual-Glo luciferase assay system, according to the manufacturer's protocol and read using Tecan Infinite M200 microplate reader using 100 ms integration time.

[9] = test system: A431 cells; assay: A431 cell proliferation (IncuCyte live imaging); format: cell-based
Method: as §2

[10] = 6 hours, read-out: EC50 on c-Myc transcriptional activity, CPP fused to H1
[11] = 6 hours, read-out: EC50 on c-Myc transcriptional activity (c-Myc-dependent luciferase activity)
[12] = tPE-Omomyc 10 nM, A431 E-Box luciferase
[13] = tPE-H1 50 nM, A431 E-Box luciferase

“cell targeting peptide Cadherin fused to H1: LLIILLRRRIRKQAHAHSK NELKRAFAALRDQI [CAD-H1, reference compound]” was tested, and the EC50 ([1]; 6 hours, listed as Cadherin, read-out: EC50 on c-Myc transcriptional activity, CPP fused to H1) was 75 µM and the EC50 [1, 10] was ~75 µM.

Work on “cell targeting peptide TAT fused to H1: GRKKRRQRRRPPQ NELKRAFAALRDQI [Tat-H1, reference compound]” yielded an EC50 ([1]; 6 hours, listed as TAT, read-out: EC50 on c-Myc transcriptional activity, CPP fused to H1) of 500 µM and an EC50 [1, 10] of ~500 µM.

In the case of “tPE-Omomyc: fusion protein: PE domains Ia and II genetically fused to Omomyc peptide, SEQ ID NO: 15”, the EC50 [1, 11] is reported as 0.005 µM, the “time of peak activity / maximal inhibition of luciferase” value [1, 12] is reported as 16 h and the “time over which maximal inhibition is stable” value [1, 12] is reported as “more than 24 hours”. The “concentration to which cell lines were sensitive” value ([2]; HeLa, A431, MG63, MDA-MD231, HCT116, data not shown) was “about 10 nM”, the “concentration sufficient to block HepG2 cell proliferation and induce cell death/apoptosis” value [3] was 10 nM and the cell proliferation ([3]; HepG2, 2.5 nM and 5 nM, 2 weeks) was “slower cell proliferation”. The “cell proliferation, different doses” value ([3]; HepG2, 1 to 10 nM) was “decrease in cell proliferation”, the “concentration above which no proliferation / absence of cell growth” value [3] was “above 10 nM” and the “number of dead (DRAQ7 positive) cells” value ([4]; HepG2, 10 nM) was “significant increase; also recorded: increase of the number of dead cells”. For the same substance, the “subcellular location after cell fractionation” value [5] was “located in nuclear fraction; also recorded: in the nuclear fraction” and the “time to reach the nucleus” value [5] was ≤ 1 h.

“cell targeting peptide Antenapedia fused to H1: RQIKIWFQNRRMKWKK NELKRAFAALRDQI [Int-H1, reference compound]” gave an EC50 ([1]; 6 hours, listed as Antenapedia, read-out: EC50 on c-Myc transcriptional activity, CPP fused to H1) of 200 µM and an EC50 ([1]; 6 hours, listed as int-H1, read-out: EC50 on c-Myc transcriptional activity, CPP fused to H1) of ~200 µM.

For “tPE-H1: fusion protein: PE domains Ia and II genetically fused to mutated H1 peptide (S6A, F8A), SEQ ID NO: 14”, the “more efficient than H1 fused to cell penetrating peptides (TAT, CAD, int)” value [1] was “at least 1000 times”, the “decrease in Myc reporter activity” value ([1]; 50 nM) was > 90% and the “effect on E-Box luciferase” value ([1]; 50 nM, 6 hours, A431) was “decrease of the luciferase”. The EC50 [1, 11] was 0.025 µM, the “time of peak activity / maximal inhibition of luciferase” value [1, 13] was 8 h and the “time over which maximal inhibition was stable” value [1, 13] was “more than 24 hours”. The “relative sensitivity of all cell lines tested, tPE-H1 versus tPE-Omomyc” value ([2]; all the cell lines tested) was “around 10 times”, the “effect on c-Myc/Max interaction (co-IP of Max with c-Myc)” value [6] was “disrupted the c-Myc/Max interaction” and the “mRNA amount of transcripts regulated by c-Myc” value [7] was “decrease of numerous upregulated genes under tPE-H1 treatment and an increase of numerous down regulated genes”. For the same substance, the “concentration sufficient to block HepG2 cell proliferation and induce cell death/apoptosis” value [3] was 100 nM, the cell proliferation ([3]; HepG2, 10 nM and 25 nM, over 2 weeks) was “slower cell proliferation” and the “concentration above which no proliferation / absence of cell growth” value [3] was “above 50 nM”. The “effect on Renilla luciferase (CMV promoter control)” value [8] was “not affected”, the “number of dead (DRAQ7 positive) cells” value ([4]; HepG2, 100 nM) was “cells death; also recorded: increase of the number of dead cells” and the “subcellular location after cell fractionation” value [5] was “location in the nucleus”. For the same substance, the “time to reach the nucleus” value [5] was “less than 1 hour”, the cell proliferation ([9]; A431, 50 nM and 100 nM, over 2 weeks) was “slower cell proliferation” and the “cell proliferation, dose response” value ([9]; A431, 50 to 400 nM) was “dose dependent decrease in cell proliferation”. The “concentration above which no proliferation / total absence of growth” value ([9]; A431, over 2 weeks) was “above 200 nM”.
